Data as given in patent US8784774B2, “Labeled molecular imaging agents and methods of use” (General Electric Company, priority 2011, dated 2014).
Read-outs that look alike come from different tables or passages of the source. Blank lines part the entries; values can stand above or below the compound they belong to.

Experiments:
[1] = target: T1, cystine/glutamate transporter (Mus musculus, UniProt Q9WTR6); experiment: Screen of unlabeled compounds for competition with 3H-L-ASU uptake (Example 3); type: cell-based; set-up: endogenous in cells; settings: read-out: inhibition of ^3H-L-ASU uptake
T1 sequence (Q9WTR6 1-502): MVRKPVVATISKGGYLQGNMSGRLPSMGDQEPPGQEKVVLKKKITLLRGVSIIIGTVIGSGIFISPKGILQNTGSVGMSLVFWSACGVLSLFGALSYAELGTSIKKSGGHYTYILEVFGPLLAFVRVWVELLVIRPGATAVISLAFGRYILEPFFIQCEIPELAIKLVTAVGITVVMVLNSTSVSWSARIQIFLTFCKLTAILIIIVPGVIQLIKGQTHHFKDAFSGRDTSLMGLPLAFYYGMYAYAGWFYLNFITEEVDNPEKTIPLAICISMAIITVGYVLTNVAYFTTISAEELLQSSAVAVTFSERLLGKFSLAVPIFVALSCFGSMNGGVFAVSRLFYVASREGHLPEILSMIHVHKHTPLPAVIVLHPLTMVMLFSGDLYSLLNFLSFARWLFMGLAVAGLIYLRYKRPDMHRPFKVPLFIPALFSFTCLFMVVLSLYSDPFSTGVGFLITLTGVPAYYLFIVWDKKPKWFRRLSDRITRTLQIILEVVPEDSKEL
T1 sequence (P10852 1-526 partner): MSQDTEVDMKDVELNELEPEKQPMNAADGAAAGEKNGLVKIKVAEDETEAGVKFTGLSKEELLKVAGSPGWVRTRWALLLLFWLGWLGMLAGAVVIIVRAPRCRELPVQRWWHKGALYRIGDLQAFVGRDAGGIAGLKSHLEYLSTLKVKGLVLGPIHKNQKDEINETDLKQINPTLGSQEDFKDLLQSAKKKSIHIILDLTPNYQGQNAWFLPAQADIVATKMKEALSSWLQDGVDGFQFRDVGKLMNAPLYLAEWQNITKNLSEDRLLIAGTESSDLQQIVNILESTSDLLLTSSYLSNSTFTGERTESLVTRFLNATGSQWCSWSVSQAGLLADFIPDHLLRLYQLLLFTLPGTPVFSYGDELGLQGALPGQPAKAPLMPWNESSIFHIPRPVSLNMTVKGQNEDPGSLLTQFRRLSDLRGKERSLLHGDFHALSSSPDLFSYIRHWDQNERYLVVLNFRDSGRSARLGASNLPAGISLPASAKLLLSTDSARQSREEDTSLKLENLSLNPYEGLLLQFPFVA

[2] = target: T1, cystine/glutamate transporter; experiment: cell-based
[3] = target: T1, cystine/glutamate transporter; experiment: 3H-L-Asu uptake in EL4 cells with or without DEM and with transporter inhibitors (Example 1); type: cell-based; set-up: endogenous in cells; host or cells: EL4 mouse lymphoma cells, with or without diethylmaleate (DEM) treatment
Description: Mouse lymphoma cells (EL4) were cultured with or without 100 μM diethylmaleate for 24 hours, washed in phosphate buffered saline (PBS) divided into aliquots of 5×10^6 cells and incubated with [^3H]-L-2-aminosuberic acid (^3H-L-Asu) without or with inhibitors of the cystine/glutamate transporter for 15 minutes. Cells were then washed 3 times and collected in a 1 ml volume of 1M HCl and transferred to a scintillation vial. 12 ml of Ready Gel scintillation fluid was added to each sample and cell uptake was determined by scintillation counting using a Perkin Elmer Tri-Carb Liquid Scintillation Analyzer.

[4] = target: T1, cystine/glutamate transporter; settings: read-out: IC50 for inhibition of ^3H-L-GLU uptake; DEM treated EL4 cells; separate set of experiments
[5] = target: T1, cystine/glutamate transporter; experiment: Uptake of labeled compounds in DEM treated EL4 cells with or without SSZ (Example 2); type: cell-based; set-up: endogenous in cells; host or cells: EL4 mouse lymphoma cells, with or without diethylmaleate (DEM) treatment; settings: for inhibition of uptake by SSZ: 500 μM SSZ; for Uptake relative to ^3H-GLU: 0.33 μCi; for SSZ inhibition (%): uptake of the labeled compound with 500 μM SSZ
Description: 5×10^6 DEM treated EL4 cells were incubated with 0.33 μCi of either [^3H]-L-ASU, [^3H]-L-GLU or [^35S]-L-Cystine (with or without 500 μM SSZ) for 15 minutes before being washed three times in PBS and uptake was analyzed via liquid scintillation counting.

[6] = test system: EL4 xenograft tumor tissue slices; experiment: Ex vivo uptake in EL4 xenograft tumor tissue slices (Example 5); type: cell-based, mouse; settings: 0.33 μCi, 30 minutes, agents matched for specific activity and radioactive dose
Description: We compared uptake of ^3H-ASU in tumor tissue ex vivo with uptake of ^3H-FDG, a tritiated form of the common ^18F-FDG imaging agent. the two agents were matched for specific activity and radioactive dose. 0.33 μCi of agent was incubated with equivalent aliquots of EL4 xenograft tumor tissue slices for 30 minutes (tumors processed with three passes on a McIlwain Tissue chopper, at 500 um steps, and washed with fresh buffer). Slices where washed three times, lysed with 1M HCl and evaluated by scintillation counting.

[7] = unlabeled competitor at high concentration (2.5 mM)

SMILES: N[C@H](CCCCCC(=O)O)C(=O)O [D-ASU]
inhibition at 2500 µM [1]: > 90% | IC50 [2]: 36.2 µM

SMILES: N[C@@H](CCCCCC(=O)O)C(=O)O [L-ASU, L-aminosuberic acid]
inhibition at 2500 µM [1]: > 90% | IC50 [2]: 2.9 µM | inhibition at 2500 µM ([3]; EL4, read-out: inhibition of ^3H-L-Asu uptake): > 95%

SMILES: N[C@@H](CCC(=O)O)C(=O)O [L-GLU, L-glutamate]
IC50 [4]: 4.7 µM

SMILES: N[C@@H](CSSC[C@H](N)C(=O)O)C(=O)O [^35S-Cystine, [^35S]-L-Cystine]
inhibition of uptake by SSZ [5]: approximately ⅔ | Uptake relative to ^3H-GLU ([5]; 15 minutes): 168.8 (±2.0) | SSZ inhibition (%) ([5]; 15 minutes): 68.7 (±1.76) %

SMILES: N[C@@H](CCC(=O)NCC(=O)O)C(=O)O [γ-glutamyl-glycine]
inhibition at 2500 µM [1, 7]: < 45%

The next lines start with results.

inhibition at 2500 µM [1, 7]: < 45%
SMILES: N[C@H](CCC[C@H](N)C(=O)O)C(=O)O [DiAPA, diaminopimelic acid]

inhibition at 2500 µM [1, 7]: > 90% | IC50 [2]: 23.9 µM
SMILES: N[C@@H](CCCC(=O)O)C(=O)O [L-AAA, L-aminoadipic acid]

inhibition of uptake by SSZ [5]: almost completely inhibited | Uptake relative to ^3H-GLU ([5]; 15 minutes): 447.0 (±22.1) | uptake efficiency relative to L-GLU uptake ([5]; 15 minutes): approximately 4.5 times | SSZ inhibition (%) ([5]; 15 minutes): 95.8 (±0.17) % | ^3H-L-Asu uptake in cells exposed to oxidative stress ([3]; EL4 cells, 100 μM diethylmaleate (DEM) 24 hours vs without, 15 minutes incubation): increased
SMILES: [3H]C(CCC(=O)O)C([3H])C[C@H](N)C(=O)O (stereo partly drawn) [^3H-Asu, (S)-2-amino 4,5-^3H-suberic acid]
more uptake than ^3H-FDG [6]: 70%

inhibition at 2500 µM [1, 7]: < 45%
SMILES: O=C(O)CCCCCCC(=O)O [suberic acid]

inhibition at 500 µM ([3]; inhibitor 500 μM, EL4 cells, 15 minutes): > 95%
SMILES: O=C(O)c1cc(/N=N/c2ccc(S(=O)(=O)Nc3ccccn3)cc2)ccc1O [sulfasalazine]
